Measured values published in US20230265151A1, “GIP/GLP1 CO-AGONIST COMPOUNDS” (priority 2020, published 2023).
Read-outs that look alike come from different tables or passages of the source.

What was measured:
[1] = target: hGLP-1R (Homo sapiens, UniProt P43220); test: Functional cAMP formation (HTRF) in HEK-293 clonal cells expressing hGLP-1R, 0.1% bovine casein, without or with 1.0% human serum albumin; assay type: cell-based; design: expressed in transfected cells; details: for Emax: percent of maximal response to GLP-1(7-36)NH2, arithmetic mean; for EC50: cAMP, 0.1% bovine casein (no human serum albumin), geometric mean
hGLP-1R, sequence (P43220 24-463): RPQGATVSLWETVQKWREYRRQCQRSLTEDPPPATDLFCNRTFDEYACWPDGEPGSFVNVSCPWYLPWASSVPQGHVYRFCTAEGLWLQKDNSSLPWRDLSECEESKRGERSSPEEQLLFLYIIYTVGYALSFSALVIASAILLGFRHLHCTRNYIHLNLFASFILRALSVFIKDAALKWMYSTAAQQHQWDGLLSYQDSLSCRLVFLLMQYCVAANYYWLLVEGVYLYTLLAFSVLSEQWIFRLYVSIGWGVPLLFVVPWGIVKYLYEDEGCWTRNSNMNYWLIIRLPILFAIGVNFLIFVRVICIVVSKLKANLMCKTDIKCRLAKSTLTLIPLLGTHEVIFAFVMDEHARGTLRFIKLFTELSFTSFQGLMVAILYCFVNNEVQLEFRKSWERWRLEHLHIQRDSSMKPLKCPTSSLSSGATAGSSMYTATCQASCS
Summary of the method: (§1)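 Cells were stimulated with peptide for 30 min at 37° C, then intracellular cAMP was measured by competitive HTRF (665/620 nm ratio) and converted to nM using a cAMP standard curve. Relative EC50 and Emax came from four-parameter logistic fits of percent maximal response against peptide concentration.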

[2] = target: T1, hGIPR (Homo sapiens, UniProt P48546); test: Functional cAMP formation (HTRF) in HEK-293 clonal cells expressing hGIPR, 0.1% bovine casein, without or with 1.0% human serum albumin; assay type: cell-based; details: for Emax: percent of maximal response to GIP(1-42)NH2; for EC50: cAMP
T1 construct: expressed in transfected cells
T1 sequence (P48546 22-466): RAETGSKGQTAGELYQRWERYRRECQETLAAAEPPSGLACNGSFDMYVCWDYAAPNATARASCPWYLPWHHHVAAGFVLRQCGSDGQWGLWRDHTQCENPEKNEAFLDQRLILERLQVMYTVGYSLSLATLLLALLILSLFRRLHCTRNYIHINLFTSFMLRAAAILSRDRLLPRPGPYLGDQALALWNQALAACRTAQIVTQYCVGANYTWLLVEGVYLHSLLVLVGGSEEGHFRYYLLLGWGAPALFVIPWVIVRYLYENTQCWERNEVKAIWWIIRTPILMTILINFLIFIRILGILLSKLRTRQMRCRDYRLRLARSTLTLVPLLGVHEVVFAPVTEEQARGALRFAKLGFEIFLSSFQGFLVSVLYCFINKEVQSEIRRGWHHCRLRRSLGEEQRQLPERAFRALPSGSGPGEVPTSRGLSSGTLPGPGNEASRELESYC
Summary of the method: as §1

[3] = target: T2, human GLP-1 receptor (hGLP-1R) (Homo sapiens, UniProt P43220); test: [125I]-GLP-1 binding, SPA with membranes of HEK293 cells expressing hGLP-1R
T2 construct: expressed in transfected cells; crude membranes
T2 sequence (P43220 24-463): as the sequence (P43220 24-463) above

[4] = target: T3, hGCGR (Homo sapiens, UniProt P47871); test: Functional cAMP formation (HTRF) in HEK-293 clonal cells expressing hGCGR, 0.1% bovine casein, without or with 1.0% human serum albumin; assay type: cell-based; details: cAMP, 37° C.
T3 construct: expressed in transfected cells
T3 sequence (P47871 26-477): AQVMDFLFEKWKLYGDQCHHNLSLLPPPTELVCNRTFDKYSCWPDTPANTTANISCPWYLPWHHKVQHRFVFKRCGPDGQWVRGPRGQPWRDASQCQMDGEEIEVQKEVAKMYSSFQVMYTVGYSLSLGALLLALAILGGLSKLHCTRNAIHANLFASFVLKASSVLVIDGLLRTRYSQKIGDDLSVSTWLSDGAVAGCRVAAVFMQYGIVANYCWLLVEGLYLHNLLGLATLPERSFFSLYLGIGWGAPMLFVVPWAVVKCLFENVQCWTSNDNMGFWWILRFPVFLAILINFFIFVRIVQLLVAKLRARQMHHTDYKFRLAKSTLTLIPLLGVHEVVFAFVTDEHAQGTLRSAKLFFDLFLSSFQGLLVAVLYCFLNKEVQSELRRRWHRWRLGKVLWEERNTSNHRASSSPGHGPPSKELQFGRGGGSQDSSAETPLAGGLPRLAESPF
Summary of the method: as §1

[5] = target: T4, human Gcg receptor (hGcgR) (Homo sapiens, UniProt P47871); test: [125I]-Glucagon binding, SPA with membranes of HEK293 cells expressing hGcgR
T4 construct: expressed in transfected cells; crude membranes
T4 sequence (P47871 26-477): as above

Structure (SMILES) | Emax ([1]; HEK293, cAMP, 37° C., 0.1% bovine casein, read-out: hGLP-1R Emax, % ± SEM) [%] | EC50 ([1]; 37° C., read-out: hGLP-1R EC50, nM (SEM, n)) [nM] | Emax ([2]; HEK293, cAMP, 37° C., 0.1% bovine casein and 1.0% human serum albumin, read-out: hGIPR Emax, % ± SEM) [%] | EC50 ([2]; 37° C., 0.1% bovine casein (no human serum albumin), geometric mean, read-out: hGIPR EC50, nM (SEM, n)) [nM] | Ki ([3]; human GLP-1R, geometric mean (SEM, n), read-out: Binding Affinity Ki, nM (SEM, n) hGLP-1R) [nM] | EC50 ([4]; 0.1% bovine casein (no human serum albumin), geometric mean, read-out: hGCGR EC50, nM (SEM, n)) [nM] | EC50 ([4]; 0.1% bovine casein and 1.0% human serum albumin, geometric mean (SEM, n), read-out: hGCGR EC50, nM (SEM, n)) [nM] | Ki ([5]; human GcgR, geometric mean (SEM, n), read-out: Binding Affinity Ki, nM (SEM, n) hGCGR) [nM] | Emax ([1]; HEK293, read-out: hGLP-1R Emax, % ± SEM, cAMP, 37° C., 0.1% bovine casein) [%] | EC50 ([1]; hGLP-1R EC50, nM (SEM, n), 37° C.) [nM] | Emax ([2]; HEK293, read-out: hGIPR Emax, % ± SEM, cAMP, 37° C., 0.1% bovine casein and 1.0% human serum albumin) [%] | EC50 ([2]; hGIPR EC50, nM (SEM, n), 37° C., 0.1% bovine casein (no human serum albumin), geometric mean) [nM] | EC50 ([2]; hGIPR EC50, nM (SEM, n), 37° C., 0.1% bovine casein and 1.0% human serum albumin, geometric mean (SEM, n)) [nM] | Ki [3] [nM] | EC50 ([4]; hGCGR EC50, nM (SEM, n), 0.1% bovine casein (no human serum albumin), geometric mean) [nM] | EC50 ([4]; hGCGR EC50, nM (SEM, n), 0.1% bovine casein and 1.0% human serum albumin, geometric mean (SEM, n)) [nM] | Ki [5] [nM]
CC[C@H](C)[C@H](NC(=O)[C@H](CC(C)C)NC(=O)[C@](C)(Cc1ccc(O)cc1)NC(=O)[C@H](CCCCNC(=O)COCCOCCNC(=O)[C@H]1CC[C@H](CNC(=O)CC[C@H](NC(=O)CCCCCCCCCCCCC(=O)O)C(=O)O)CC1)NC(=O)[C@@H](NC(=O)[C@H](Cc1ccccc1)NC(=O)[C@H](CCCN)NC(=O)C(C)(C)NC(=O)[C@H](CCC(N)=O)NC(=O)[C@H](C)NC(=O)[C@H](CCC(N)=O)NC(=O)[C@H](CCCN)NC(=O)[C@H](CC(=O)O)NC(=O)[C@H](CC(C)C)NC(=O)[C@](C)(CC(C)C)NC(=O)[C@@H](NC(=O)C(C)(C)NC(=O)[C@H](Cc1ccncc1)NC(=O)[C@H](CC(=O)O)NC(=O)[C@H](CO)NC(=O)[C@@H](NC(=O)[C@](C)(Cc1ccccc1F)NC(=O)[C@@H](NC(=O)CNC(=O)[C@H](CCC(=O)O)NC(=O)C(C)(C)NC(=O)[C@@H](N)Cc1ccc(O)cc1)[C@@H](C)O)[C@@H](C)O)[C@@H](C)CC)[C@@H](C)CC)C(=O)N[C@@H](CCCCNC(=O)COCCOCCNC(=O)[C@H]1CC[C@H](CNC(=O)CC[C@H](NC(=O)CCCCCCCCCCCCC(=O)O)C(=O)O)CC1)C(=O)NCC(=O)NCC(=O)N1CCC[C@H]1C(=O)N[C@@H](CO)C(=O)N[C@@H](CO)C(=O)NCC(=O)N[C@@H](C)C(=O)N1CCC[C@H]1C(=O)N1CCC[C@H]1C(=O)N1CCC[C@H]1C(=O)N[C@@H](CO)C(N)=O [Example 472] | 118 | 0.154 | 76.3 | 0.0131 | 0.254 | > 9950 | > 9950 | 258 |  |  |  |  |  |  |  |  | 
CC[C@H](C)[C@H](NC(=O)[C@H](CC(C)C)NC(=O)[C@](C)(Cc1ccc(O)cc1)NC(=O)[C@H](CCCCNC(=O)COCCOCCNC(=O)COCCOCCNC(=O)CC[C@H](NC(=O)CC[C@H](NC(=O)CCCCCCCCCOc1ccc(C(=O)O)cc1)C(=O)O)C(=O)O)NC(=O)[C@@H](NC(=O)[C@H](Cc1ccccc1)NC(=O)[C@H](CCCN)NC(=O)C(C)(C)NC(=O)[C@H](CCC(N)=O)NC(=O)[C@H](C)NC(=O)[C@H](CCC(N)=O)NC(=O)[C@H](CCCN)NC(=O)[C@H](CC(=O)O)NC(=O)[C@H](CC(C)C)NC(=O)[C@](C)(CC(C)C)NC(=O)[C@@H](NC(=O)C(C)(C)NC(=O)[C@H](Cc1ccncc1)NC(=O)[C@H](CC(=O)O)NC(=O)[C@H](CO)NC(=O)[C@@H](NC(=O)[C@](C)(Cc1ccccc1F)NC(=O)[C@@H](NC(=O)CNC(=O)[C@H](CCC(=O)O)NC(=O)C(C)(C)NC(=O)[C@@H](N)Cc1ccc(O)cc1)[C@@H](C)O)[C@@H](C)O)[C@@H](C)CC)[C@@H](C)CC)C(=O)N[C@@H](CCCCNC(=O)COCCOCCNC(=O)COCCOCCNC(=O)CC[C@H](NC(=O)CC[C@H](NC(=O)CCCCCCCCCOc1ccc(C(=O)O)cc1)C(=O)O)C(=O)O)C(=O)NCC(=O)NCC(=O)N1CCC[C@H]1C(=O)N[C@@H](CO)C(=O)N[C@@H](CO)C(=O)NCC(=O)N[C@@H](C)C(=O)N1CCC[C@H]1C(=O)N1CCC[C@H]1C(=O)N1CCC[C@H]1C(=O)N[C@@H](CO)C(N)=O [Example 475] |  |  |  |  |  |  |  |  | 116 | 0.143 | 84.6 | 0.012 | 0.211 | 0.189 | > 9950 | > 9950 | 139
